Starred links: 1 amine or outer side, 2 acyl side, 3 side chain; linkers in the order of their positions; H or OH if unused. Non-standard residues stand in square brackets, D forms with d. Residues, ends and D or L forms follow the SMILES beside them. *: point of attachment. Trp(7-Me) = Cc1cccc2c(C[C@H](N)C(=O)O)c[nH]c12; C20 diacid = O=C(O)CCCCCCCCCCCCCCCCCCC(=O)*; d(γGlu) = O=C(O)[C@@H](CCC(=O)[*:2])N[*:1]; C18 diacid = O=C(O)CCCCCCCCCCCCCCCCC(=O)*; γGlu = O=C(O)[C@H](CCC(=O)[*:2])N[*:1]; NMeH = CN[C@@H](Cc1c[nH]cn1)C(=O)O; Nle = CCCC[C@H](N)C(=O)O; β3hA = C[C@H](N)CC(=O)O; AEEA = NCCOCCOCC(=O)O; βAla = NCCC(=O)O

Series [1] can be described thus: Food intake and body weight after subcutaneous administration in mice, 16 hours (Example A-2b). The series is classed as in vivo. Conditions: male C57BL/6J mice, single subcutaneous dose, peptide 500 nmol/kg, high fat diet. An excerpt:
Male C57BL/6J mice, approximately 10 weeks old (Jackson Laboratory), were group housed in a 12-h light cycle room (6:00 AM on, 6:00 PM off) upon arrival and acclimated to the facility for a minimum of 1 week prior to the study. Animals were provided standard rodent chow (PicoLab Rodent Diet, 5053) ad libitum. Animals were single caged for a minimum of 3 days prior to the study. During the period prior to the study day, mice were exposed to one pellet of high fat diet (Research Diets D12492i) to avoid any effects of novelty in the study. On three separate days during this run-in period, mice were given one dose of phosphate-buffered saline (PBS; 5 mL/kg) by subcutaneous injection to acclimate them to the procedure. For baseline measures, pre-weighed meals of standard rodent chow were provided to each animal following acclimation dosing at 3:30 PM, and body weight was recorded. The next morning at 9:30 AM, food intake and body weight measurements were recorded at 16 hours following the presentation of the pre-weighed meal. These measurements and the resulting body weight changes were then used to assign mice to balanced cohorts. On the day of the study, mice were weighed and given a subcutaneous dose of either vehicle (PBS, 5 mL/kg; pH 5.0-8.5) or a peptide of the disclosure (500 nmol/kg; pH 5.0-8.5). Following dosing, a pre-weighed high fat diet was provided. Food intake and body weight measurements were taken at 16 hours following the provision of the pre-weighed high fat diet. […] Table 6 below describes the percent reduction in food intake and the percent body weight (BW) change with peptides as measured relative to the vehicle group.

Series [2] can be described thus: Pharmacokinetics after intravenous peptide administration in mice. Conditions: mouse, in vivo, C57BL/6 mice, IV 2 mg/kg, formulation of 0.4 mg/mL; for clearance: read-out: CL; for half-life: read-out: T1/2 (converted). On the set-up: species or system C57BL/6 mice. The procedure: GPR-10 and peptides were dosed IV at 2 mg/kg as a formulation of 0.4 mg/mL in […]+65% water (pH 6-7).

The target of series [3] is T1, human GRP receptors (Homo sapiens, UniProt P30550).
T1 construct: host or cells: U2OS
T1 sequence (P30550 whole entry): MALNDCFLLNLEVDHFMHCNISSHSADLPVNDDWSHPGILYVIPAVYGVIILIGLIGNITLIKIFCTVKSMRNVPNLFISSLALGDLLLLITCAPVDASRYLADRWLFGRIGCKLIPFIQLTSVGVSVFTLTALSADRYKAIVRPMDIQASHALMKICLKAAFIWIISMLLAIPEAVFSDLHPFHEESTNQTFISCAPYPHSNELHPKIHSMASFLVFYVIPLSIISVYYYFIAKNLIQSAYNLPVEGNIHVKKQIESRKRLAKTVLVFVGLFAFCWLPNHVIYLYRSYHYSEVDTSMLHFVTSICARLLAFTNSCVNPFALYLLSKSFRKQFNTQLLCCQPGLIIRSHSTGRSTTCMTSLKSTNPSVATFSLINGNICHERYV
Briefly: IP1 GRPR activity: HTRF IP1-Gq assay in U2OS cells stably expressing human GRP receptors. It is filed as cell-based. The settings on record: 90 minutes incubation, read-out: hIP1 GRPR EC50. The procedure: U2OS cells stably expressing human GRP receptors (DiscoverX, #93-0229C3) were cultured according to manufacturer's instructions. Cells were cultured to […], then collected using AccuTase (Innovative Cell Technologies, #AT104). Cells were washed and plated on a poly-D-lysine-coated 384-well plate (ThermoFisher, #A3890401) at a density of 2,500 cells/well in […] assay buffer (AssayComplete Cell Plating 5 Reagent, DiscoverX #93-0563R5), then incubated overnight at 37° C. and 5% C02. The following morning, a homogenous time-resolved fluorescence (HTRF) assay was performed in a 384-well plate format using the IP1-Gq assay kit (Cisbio, 62IPAPEB). Test compounds were made as a stock in DMSO, then serially diluted to generate 10-point dose response curves in IP1 stimulation buffer. Five microliters of the prepared compounds were then added to the plate containing cells and assay buffer in duplicate, and the cells were incubated at 37° C. and 5% CO2 for 90 minutes. Following compound incubation, […] of IP1 lysis/detection buffer (prepared according to manufacturer's instructions) was added to each well, and the plates were incubated at room temperature for 1 hour. HTRF signals were measured using a plate reader (ClarioSTAR), calculating the ratio between emissions at 665 nm and 620 nm (HTRF ratio). HTRF ratio for positive (Max, […]; SEQ ID NO. 45) and negative (Min, DMSO) controls were used to normalize HTRF data and generate values for % activity. EC50 and Max activity values were determined using a standard 4-parameter fit using GraphPad Prism.
In general terms: Time-resolved FRET reads energy transfer from a long-lived donor to a nearby acceptor.

Turning to `CCCC[C@H](NC(=O)[C@H](CC(C)C)NC(=O)[C@H](Cc1c[nH]cn1)NC(=O)CCNC(=O)[C@@H](NC(=O)[C@H](C)NC(=O)[C@H](Cc1c[nH]c2c(C)cccc12)NC(=O)[C@H](Cc1c[nH]cn1)NC(=O)[C@H](CCCNC(=N)N)NC(=O)CNC(=O)COCCOCCNC(=O)COCCOCCNC(=O)CC[C@H](NC(=O)CCCCCCCCCCCCCCCCCCC(=O)O)C(=O)O)C(C)C)C(N)=O` [Peptide 242, Eicosanedioyl-γGlu-OEG-OEG-Gly-Arg-His-7MethylTrp-Ala-Val-β-Ala-His-Leu-Nle-NH2] ({C20 diacid-γGlu-AEEA-AEEA}-GRH[Trp(7-Me)]AV[βAla]HL[Nle]-NH2), in series [1], the “% Body Weight Change at 16 hours (compared with vehicle)” value (“% Body Weight Change at 16 hours” for short) was −9% and the “% Reduction in Cumulative Food Intake over 16 hours (compared with vehicle)” value (shortened to “% Reduction in Cumulative Food Intake”) was 55%.
As to `CCCC[C@H](NC(=O)[C@H](CC(C)C)NC(=O)[C@H](Cc1c[nH]cn1)NC(=O)CCNC(=O)[C@@H](NC(=O)[C@H](C)NC(=O)[C@H](Cc1c[nH]c2ccccc12)NC(=O)[C@H](Cc1c[nH]cn1)NC(=O)[C@H](CCC(N)=O)NC(=O)CNC(=O)COCCOCCNC(=O)COCCOCCNC(=O)CC[C@H](NC(=O)CCCCCCCCCCCCCCCCCCC(=O)O)C(=O)O)C(C)C)C(N)=O` [Peptide 241, Eicosanedioyl-γGlu-OEG-OEG-Gly-Gln-His-Trp-Ala-Val-β-Ala-His-Leu-Nle-NH2] ({C20 diacid-γGlu-AEEA-AEEA}-GQHWAV[βAla]HL[Nle]-NH2), in series [2], the clearance was found to be 0.23 mL/min/kg and the half-life is 7 h. Also, in series [1], the “% Body Weight Change at 16 hours” value is given as −10% and the “% Reduction in Cumulative Food Intake” value is recorded as 74%.
Usually EC50 stands for the concentration that produces a half-maximal response. For the compound `CCCC[C@H](NC(=O)[C@H](CC(C)C)NC(=O)[C@H](Cc1c[nH]cn1)NC(=O)CCNC(=O)[C@@H](NC(=O)[C@H](C)NC(=O)[C@H](Cc1c[nH]c2c(C)cccc12)NC(=O)[C@H](Cc1c[nH]cn1)NC(=O)[C@H](CCC(=O)O)NC(=O)CNC(=O)[C@H](CO)NC(=O)COCCOCCNC(=O)COCCOCCNC(=O)CC[C@H](NC(=O)CC[C@H](NC(=O)CCCCCCCCCCCCCCCCCCC(=O)O)C(=O)O)C(=O)O)C(C)C)C(N)=O` [Peptide 255, Eicosanedioyl-γGlu-Glu-OEG-OEG-Ser-Gly-Glu-His-7MeTrp-Ala-Val-β-Ala-His-Leu-Nle-NH2] ({C20 diacid-γGlu-γGlu-AEEA-AEEA}-SGEH[Trp(7-Me)]AV[βAla]HL[Nle]-NH2), in series [2], the clearance was 0.09 mL/min/kg and the half-life was 9.4 h. For the same compound, the EC50 in series [3] came out at 6.9 nM.
For `CCCC[C@H](NC(=O)[C@H](CC(C)C)NC(=O)[C@H](Cc1c[nH]cn1)N(C)C(=O)C[C@H](C)NC(=O)[C@@H](NC(=O)[C@H](C)NC(=O)[C@H](Cc1c[nH]c2c(C)cccc12)NC(=O)[C@H](Cc1c[nH]cn1)NC(=O)[C@H](CC(=O)O)NC(=O)CNC(=O)COCCOCCNC(=O)COCCOCCNC(=O)CC[C@H](NC(=O)CC[C@H](NC(=O)CCCCCCCCCCCCCCCCCCC(=O)O)C(=O)O)C(=O)O)C(C)C)C(N)=O` [Peptide 278, Eicosanedioyl-γGlu-γGlu-OEG-OEG-Gly-Asp-His-7MeTrp-Ala-Val-BABA-NMeHis-Leu-Nle-NH2] ({C20 diacid-γGlu-γGlu-AEEA-AEEA}-GDH[Trp(7-Me)]AV[β3hA][NMeH]L[Nle]-NH2), in series [1], the “% Body Weight Change at 16 hours” value was −12% and the “% Reduction in Cumulative Food Intake” value is 63%. Besides, in series [3], the EC50 was found to be 10.8 nM.
For `CCCC[C@H](NC(=O)[C@H](CC(C)C)NC(=O)[C@H](Cc1c[nH]cn1)NC(=O)CCNC(=O)[C@@H](NC(=O)[C@H](C)NC(=O)[C@H](Cc1c[nH]c2c(C)cccc12)NC(=O)[C@H](Cc1c[nH]cn1)NC(=O)[C@H](CCCNC(=N)N)NC(=O)CNC(=O)[C@H](CCC(=O)O)NC(=O)COCCOCCNC(=O)COCCOCCNC(=O)CC[C@H](NC(=O)CC[C@H](NC(=O)CCCCCCCCCCCCCCCCCCC(=O)O)C(=O)O)C(=O)O)C(C)C)C(N)=O` [Peptide 252, Eicosanedioyl-γGlu-γGlu-OEG-OEG-Glu-Gly-Arg-His-7MeTrp-Ala-Val-β-Ala-His-Leu-Nle-NH2] ({C20 diacid-γGlu-γGlu-AEEA-AEEA}-EGRH[Trp(7-Me)]AV[βAla]HL[Nle]-NH2), in series [2], the clearance was 0.12 mL/min/kg and the half-life is 6.6 h. Besides, the EC50 in series [3] was determined as 7.5 nM.
For the compound `CCCC[C@H](NC(=O)[C@H](CC(C)C)NC(=O)[C@H](Cc1c[nH]cn1)NC(=O)CCNC(=O)[C@@H](NC(=O)[C@H](C)NC(=O)[C@H](Cc1c[nH]c2c(C)cccc12)NC(=O)[C@H](Cc1c[nH]cn1)NC(=O)[C@H](CCC(=O)O)NC(=O)[C@@H](CO)NC(=O)[C@H](CCC(=O)O)NC(=O)COCCOCCNC(=O)COCCOCCNC(=O)CC[C@H](NC(=O)CC[C@H](NC(=O)CCCCCCCCCCCCCCCCCCC(=O)O)C(=O)O)C(=O)O)C(C)C)C(N)=O` [Peptide 248, Eicosanedioyl-γGlu-γGlu-OEG-OEG-Glu-D-Ser-Glu-His-7MeTrp-Ala-Val-β-Ala-His-Leu-Nle-NH2] ({C20 diacid-γGlu-γGlu-AEEA-AEEA}-E[dS]EH[Trp(7-Me)]AV[βAla]HL[Nle]-NH2), in series [2], the clearance is 0.12 mL/min/kg and the half-life is 9.7 h. In addition, in series [1], the “% Body Weight Change at 16 hours” value was −9% and the “% Reduction in Cumulative Food Intake” value was determined as 54%.
As for `CCCC[C@H](NC(=O)[C@H](CC(C)C)NC(=O)[C@H](Cc1c[nH]cn1)NC(=O)CCNC(=O)[C@@H](NC(=O)[C@H](C)NC(=O)[C@H](Cc1c[nH]c2c(C)cccc12)NC(=O)[C@H](Cc1c[nH]cn1)NC(=O)[C@H](CCC(N)=O)NC(=O)[C@H](CO)NC(=O)[C@H](CCC(=O)O)NC(=O)COCCOCCNC(=O)COCCOCCNC(=O)CC[C@H](NC(=O)CC[C@H](NC(=O)CCCCCCCCCCCCCCCCCCC(=O)O)C(=O)O)C(=O)O)C(C)C)C(N)=O` [Peptide 257, Eicosanedioyl-γGlu-γGlu-OEG-OEG-Glu-Ser-Gln-His-7MeTrp-Ala-Val-β-Ala-His-Leu-Nle-NH2] ({C20 diacid-γGlu-γGlu-AEEA-AEEA}-ESQH[Trp(7-Me)]AV[βAla]HL[Nle]-NH2), in series [2], the clearance stood at 0.09 mL/min/kg and the half-life is 9.4 h.
Turning to `CCCC[C@H](NC(=O)[C@H](CC(C)C)NC(=O)[C@H](Cc1c[nH]cn1)N(C)C(=O)C[C@H](C)NC(=O)[C@@H](NC(=O)[C@H](C)NC(=O)[C@H](Cc1c[nH]c2c(C)cccc12)NC(=O)[C@H](Cc1c[nH]cn1)NC(=O)[C@H](CCC(=O)O)NC(=O)[C@H](CO)NC(=O)COCCOCCNC(=O)COCCOCCNC(=O)CC[C@H](NC(=O)CC[C@H](NC(=O)CCCCCCCCCCCCCCCCCCC(=O)O)C(=O)O)C(=O)O)C(C)C)C(N)=O` [Peptide 277, Eicosanedioyl-γGlu-γGlu-OEG-OEG-Ser-Glu-His-7MeTrp-Ala-Val-BABA-NMeHis-Leu-Nle-NH2] ({C20 diacid-γGlu-γGlu-AEEA-AEEA}-SEH[Trp(7-Me)]AV[β3hA][NMeH]L[Nle]-NH2), in series [1], the “% Body Weight Change at 16 hours” value is reported as −12% and the “% Reduction in Cumulative Food Intake” value worked out at 69%.
With `CCCC[C@H](NC(=O)[C@H](CC(C)C)NC(=O)[C@H](Cc1c[nH]cn1)NC(=O)[C@@H](C)NC(=O)[C@@H](NC(=O)[C@H](C)NC(=O)[C@H](Cc1c[nH]c2ccccc12)NC(=O)[C@H](Cc1c[nH]cn1)NC(=O)[C@H](CC(N)=O)NC(=O)CNC(=O)COCCOCCNC(=O)COCCOCCNC(=O)CC[C@@H](NC(=O)CCCCCCCCCCCCCCCCC(=O)O)C(=O)O)C(C)C)C(N)=O` [Peptide 9, Octadecanedioyl-D-γGlu-OEG-OEG-Gly-Asn-His-Trp-Ala-Val-D-Ala-His-Leu-Nle-NH2] ({C18 diacid-d(γGlu)-AEEA-AEEA}-GNHWAV[dA]HL[Nle]-NH2), in series [2], the clearance is 0.5 mL/min/kg and the half-life is 5.7 h.

Source of the values: patent US20260176319A1, “PEPTIDE ANALOGS AND METHODS OF USING THE SAME” (Kallyope, Inc., priority 2024, published 2026).
